Test results as given in patent publication US12240840B2, “Amide-substituted heterocyclic compounds for the treatment of conditions related to the modulation of IL-12, IL-23 and/or IFN-alpha” (BRISTOL-MYERS SQUIBB COMPANY, priority 2018, dated 2025).

test system: IFNα-induced pSTAT5 (pY694) in CD3 positive cells of human whole blood; experiment: IFNα-Induced STAT Phosphorylation in Human Whole Blood; format: cell-based; conditions: Homo sapiens, 1 h compound incubation, 1000 U/mL recombinant human IFNα A/D for 15 min, pSTAT5 in CD3 positive population, read-out: Human WB IFNα-Induced Stat Phosph. (IC50)
Protocol: IFNα-Induced STAT Phosphorylation in Human Whole Blood
After an hour long incubation with compound, human whole blood (drawn with either EDTA or ACD-A as anti-coagulant) was stimulated with 1000 U/mL recombinant human IFNα A/D (R&D Systems 11200-2) for 15 min. The stimulation was stopped by adding Fix/Lyse buffer (BD 558049). Cells were stained with a CD3 FITC antibody (BD 555916), washed, and permeabilized on ice using Perm III buffer (BD 558050). Cells were then stained with an Alexa-Fluor 647 pSTAT5 (pY694) antibody (BD 612599) for 30 min prior to analysis on the FACS Canto II. The amount of pSTAT5 expression was quantitated by median fluorescence intensity after gating on the CD3 positive population.
IFNα-Induced STAT Phosphorylation in Human Whole Blood Inhibition Data ND—no data available

SMILES | IC50
COCCNC(=O)c1cnc(-c2cccc(Nc3cc(NC(=O)C4CC4)nnc3C(N)=O)c2OC)s1 [Example 408] | 0.11 µM
[2H]C([2H])([2H])NC(=O)c1nnc(NC(=O)C2CC2)cc1Nc1cc(F)cc(-c2cc(C(=O)N3CCC(CCO)CC3)n(C)n2)c1OC [Example 509] | 0.17 µM
[2H]C([2H])([2H])NC(=O)c1nnc(NC(=O)C2CC2)cc1Nc1cccc(-c2ccn(CCNC(=O)CO)n2)c1OC [Example 467] | 0.2 µM
[2H]C([2H])([2H])NC(=O)c1nnc(Nc2ccc(OC)nn2)cc1Nc1cccc(-c2ncc(CN)s2)c1OC [Example 389] | 0.57 µM
[2H]C([2H])([2H])NC(=O)c1nnc(NC(=O)C2CC2)cc1Nc1cccc(-c2nc([C@H](NC(C)=O)[C@H](C)O)no2)c1OC [Example 203] | 0.46 µM
[2H]C([2H])([2H])NC(=O)c1nnc(NC(=O)C2CC2)cc1Nc1cccc(-c2ncc(C(=O)N3CCC(N(CC)CC)CC3)s2)c1OC [Example 343] | 0.022 µM
[2H]C([2H])([2H])NC(=O)c1nnc(NC(=O)C2CC2)cc1Nc1cccc(-c2nc([C@H](N)CO)no2)c1OC [Example 221] | 0.16 µM
[2H]C([2H])([2H])NC(=O)c1nnc(NC(=O)C2CC2)cc1Nc1cccc(-c2ncc(C(=O)N3CCC(CCN4CCCC4)CC3)s2)c1OC [Example 318] | 0.08 µM
[2H]C([2H])([2H])NC(=O)c1cnc(NC(=O)C2CC2)cc1Nc1cccc(-c2nc(C(C)N3CCN(S(C)(=O)=O)CC3)no2)c1OC (stereo not drawn) [Example 223] | 0.69 µM
[2H]C([2H])([2H])NC(=O)c1nnc(NC(=O)C2CC2)cc1Nc1cccc(-c2nc(CC)no2)c1OC [Example 121] | > 10 µM
[2H]C([2H])([2H])NC(=O)c1nnc(NC(=O)C2CC2)cc1Nc1cccc(-c2ncc(CC(=O)NCCC3CCCN3C)o2)c1OC (stereo not drawn) [Example 412] | 4.62 µM
[2H]C([2H])([2H])NC(=O)c1nnc(NC(=O)C2CC2)cc1Nc1cccc(-c2ncc(C(=O)N3CCN(S(=O)(=O)CC)CC3)s2)c1OC [Example 242] | 0.021 µM
[2H]C([2H])([2H])NC(=O)c1nnc(Nc2cnn(C)n2)cc1Nc1cccc(-c2ncc(CO)s2)c1OC [Example 386] | 0.49 µM
[2H]C([2H])([2H])NC(=O)c1nnc(NC(=O)C2CC2)cc1Nc1cccc(-c2nc([C@@H](NC(C)=O)[C@@H](C)O)no2)c1OC [Example 187] | 1.13 µM
[2H]C([2H])([2H])NC(=O)c1nnc(NC(=O)C2CC2)cc1Nc1cccc(-c2cc(C)nn2CCN)c1OC [Example 463] | 0.8 µM
[2H]C([2H])([2H])NC(=O)c1nnc(NC(=O)C2CC2)cc1Nc1cccc(-c2noc(CN3CCC(O)C3)n2)c1OC (stereo not drawn) [Example 82] | 0.07 µM
[2H]C([2H])([2H])NC(=O)c1nnc(NC(=O)C2CC2)cc1Nc1cccc(-c2noc(C(CCC)C(=O)N3CCOCC3)n2)c1OC (stereo not drawn) [Example 42] | 0.23 µM

SMILES | IC50
[2H]C([2H])([2H])NC(=O)c1nnc(NC(=O)C2CC2)cc1Nc1cccc(-c2nc(CN3CCS(=O)(=O)CC3)no2)c1OC [Example 164] | 0.2 µM
COc1c(Nc2cc(NC(=O)C3CC3)nnc2C(N)=O)cccc1-c1noc([C@H](C)N(C)S(C)(=O)=O)n1 [Example 51] | 0.16 µM
[2H]C([2H])([2H])NC(=O)c1nnc(NC(=O)C2CC2)cc1Nc1cccc(-c2ncc(C(=O)N3CCN(C(C)C)CC3)s2)c1OC [Example 295] | 0.06 µM
[2H]C([2H])([2H])NC(=O)c1nnc(NC(=O)C2CC2)cc1Nc1cc(F)cc(-c2cc(C(=O)N3CCCN(C)CC3)n(C)n2)c1OC [Example 517] | 0.35 µM
[2H]C([2H])([2H])NC(=O)c1nnc(NC(=O)C2CC2)cc1Nc1cccc(-c2ncc(C(=O)NCCCN3CCN(C(C)C)CC3)s2)c1OC [Example 341] | 0.11 µM
[2H]C([2H])([2H])NC(=O)c1nnc(NC(=O)C2CC2)cc1Nc1cccc(-c2ncc(C(=O)N3C4CCC3CN(C)C4)s2)c1OC [Example 288] | 0.09 µM
[2H]C([2H])([2H])NC(=O)c1nnc(Nc2ccc(OC)nn2)cc1Nc1cccc(-c2ncc(CNC(=O)OC(C)(C)C)s2)c1OC [Example 388] | > 10 µM
[2H]C([2H])([2H])NC(=O)c1nnc(Nc2cnc(OC)cn2)cc1Nc1cccc(-c2csc(C(=O)NCCOC)n2)c1OC [Example 570] | 0.93 µM
[2H]C([2H])([2H])NC(=O)c1nnc(NC(=O)C2CC2)cc1Nc1cccc(-c2ncc(C(=O)N3CC(CO)C3)s2)c1OC [Example 345] | 0.18 µM
[2H]C([2H])([2H])NC(=O)c1nnc(NC(=O)C2CC2)cc1Nc1cccc(-c2noc(C(=O)NCCOC)n2)c1OC [Example 19] | 0.25 µM
[2H]C([2H])([2H])NC(=O)c1nnc(NC(=O)C2CC2)cc1Nc1cc(F)cc(-c2cc(NC(C)=O)n(C)n2)c1OC [Example 500] | 0.37 µM
[2H]C([2H])([2H])NC(=O)c1nnc(NC(=O)C2CC2)cc1Nc1cccc(-c2cc(C(=O)N3CCCCC3)n(C)n2)c1OC [Example 479] | 0.11 µM
[2H]C([2H])([2H])NC(=O)c1nnc(NC(=O)C2CC2)cc1Nc1cccc(-c2noc(C(=O)NCCC3CCCN3C)n2)c1OC (stereo not drawn) [Example 21] | 0.022 µM
[2H]C([2H])([2H])NC(=O)c1nnc(NC(=O)C2CC2)cc1Nc1cccc(-c2ncc(C(=O)NCC(O)CN3CCCC3=O)s2)c1OC (stereo not drawn) [Example 332] | 0.04 µM
[2H]C([2H])([2H])NC(=O)c1nnc(NC(=O)C2CC2)cc1Nc1cccc(-c2ncc(C(=O)NCC(C)C)s2)c1OC [Example 310] | > 10 µM
[2H]C([2H])([2H])NC(=O)c1cnc(NC(=O)C2CC2)cc1Nc1cccc(-c2noc(CN3CCCS3(=O)=O)n2)c1OC [Example 97] | 0.03 µM
[2H]C([2H])([2H])NC(=O)c1nnc(NC(=O)C2CC2)cc1Nc1cccc(-c2noc(CN3CCN(C(=O)OC)CC3)n2)c1OC [Example 14] | 0.05 µM

Results, then the compound that gave them:

IC50 | SMILES
0.42 µM | [2H]C([2H])([2H])NC(=O)c1nnc(NC(=O)C2CC2)cc1Nc1cccc(-c2ccn(CCNS(C)(=O)=O)n2)c1OC [Example 466]
> 10 µM | [2H]C([2H])([2H])NC(=O)c1nnc(NC(=O)C2CC2)cc1Nc1cc(F)cc(-c2cc(C(=O)NCCCCC)n(C)n2)c1OC [Example 513]
0.48 µM | [2H]C([2H])([2H])NC(=O)c1nnc(NC(=O)C2CC2)cc1Nc1cccc(-c2nc(CN3CCC(O)CC3)no2)c1OC [Example 207]
> 10 µM | [2H]C([2H])([2H])NC(=O)c1nnc(NC(=O)C2CC2)cc1Nc1cccc(-c2ncc(NC(=O)CC#N)s2)c1OC [Example 284]
3.49 µM | COc1c(Nc2cc(N)nnc2C(N)=O)cccc1-c1noc(C(=O)NCCC2CCCN2C)n1 (stereo not drawn) [Example 115]
0.34 µM | [2H]C([2H])([2H])NC(=O)c1nnc(NC(=O)C2CC2)cc1Nc1cccc(-c2ccn(CCNC(=O)CC#N)n2)c1OC [Example 470]
0.025 µM | COc1c(Nc2cc(NC(=O)C3CC3)nnc2C(N)=O)cccc1-c1noc(CCS(C)(=O)=O)n1 [Example 71]
1.11 µM | [2H]C([2H])([2H])NC(=O)c1nnc(NC(=O)C2CC2)cc1Nc1cccc(-c2nc(CNC(=O)CNC)no2)c1OC [Example 154]
0.08 µM | [2H]C([2H])([2H])NC(=O)c1nnc(Nc2ccc(OC)nn2)cc1Nc1cccc(-c2nc(CN3CCOCC3)no2)c1OC [Example 238]
0.16 µM | [2H]C([2H])([2H])NC(=O)c1nnc(NC(=O)C2CC2)cc1Nc1cccc(-c2cnn(CCNS(C)(=O)=O)n2)c1OC [Example 434]
1 µM | [2H]C([2H])([2H])NC(=O)c1nnc(NC(=O)C2CC2)cc1Nc1cccc(-c2nc(COCc3ccccc3)no2)c1OC [Example 144]
0.26 µM | [2H]C([2H])([2H])NC(=O)c1nnc(NC(=O)C2CC2)cc1Nc1cccc(-c2ncc(C(=O)NCCCC)s2)c1OC [Example 314]
0.26 µM | [2H]C([2H])([2H])NC(=O)c1nnc(NC(=O)C2CC2)cc1Nc1cccc(-c2nc(CN3CCN(C(=O)COC)CC3)no2)c1OC [Example 127]
1.44 µM | [2H]C([2H])([2H])NC(=O)c1nnc(NC(=O)C2CC2)cc1Nc1cccc(-c2nc(CN(C)C(=O)CN(C)C)no2)c1OC [Example 172]
0.13 µM | [2H]C([2H])([2H])NC(=O)c1nnc(NC(=O)C2CC2)cc1Nc1cccc(-c2ncc(CC(=O)N(C)C)s2)c1OC [Example 256]
3.27 µM | [2H]C([2H])([2H])NC(=O)c1nnc(NC(=O)C2CC2)cc1Nc1cccc(-c2ncc(CC(=O)NCCCN(C)C)s2)c1OC [Example 252]
2 µM | [2H]C([2H])([2H])NC(=O)c1cnc(Nc2cc(C(C)(C)O)ccn2)cc1Nc1cc(F)cc(-c2csc(C(=O)NCCOC)n2)c1OC [Example 573]
0.2 µM | [2H]C([2H])([2H])NC(=O)c1nnc(NC(=O)C2CC2)cc1Nc1cccc(-c2cc(C(=O)N3CCC(N(C)C)CC3)n(C)n2)c1OC [Example 529]
0.24 µM | [2H]C([2H])([2H])NC(=O)c1nnc(NC(=O)C2CC2)cc1Nc1cccc(-c2nc(C)c(C(=O)N3CCNC(=O)C3)s2)c1OC [Example 363]
0.7 µM | [2H]C([2H])([2H])NC(=O)c1cnc(NC(=O)C2CC2)cc1Nc1cc(F)cc(-c2csc(C(=O)NCCOC)n2)c1OC [Example 574]
0.06 µM | COCc1nc(-c2cccc(Nc3cc(NC(=O)C4CC4)nnc3C(N)=O)c2OC)no1 [Example 67]
0.68 µM | [2H]C([2H])([2H])NC(=O)c1nnc(NC(=O)C2CC2)cc1Nc1cccc(-c2csc(C(=O)NCCOC)n2)c1OC [Example 566]
0.55 µM | [2H]C([2H])([2H])NC(=O)c1nnc(NC(=O)C2CC2)cc1Nc1cccc(-c2nc(CC(=O)NCC)no2)c1OC [Example 178]
